Target: T1, α2C-adrenoceptor (Homo sapiens, UniProt P18825)
T1 sequence (P18825 1-462): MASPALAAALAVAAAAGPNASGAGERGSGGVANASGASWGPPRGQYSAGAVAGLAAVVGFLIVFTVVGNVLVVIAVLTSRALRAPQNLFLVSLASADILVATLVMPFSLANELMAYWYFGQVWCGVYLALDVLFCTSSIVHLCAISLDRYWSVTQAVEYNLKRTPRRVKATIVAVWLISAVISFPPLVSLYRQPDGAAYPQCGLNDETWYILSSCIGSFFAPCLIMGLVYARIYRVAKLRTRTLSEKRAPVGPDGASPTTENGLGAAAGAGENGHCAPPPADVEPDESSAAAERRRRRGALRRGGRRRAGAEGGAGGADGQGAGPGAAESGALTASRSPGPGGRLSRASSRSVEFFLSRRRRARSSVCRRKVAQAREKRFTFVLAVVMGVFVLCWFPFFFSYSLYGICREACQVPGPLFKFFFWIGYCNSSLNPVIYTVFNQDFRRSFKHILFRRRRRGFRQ
Test: α2c-Adrenoceptor binding test (3H-MK-912 binding, HepG2 cell membrane fraction)
Design: the membrane fraction of the cultured cells was used; endogenous in cells; host or cells: HepG2 (human hepatoma) cell membrane fraction
Settings: 0.5 h, test compound 10^−7 mol/l, read-out: Inhibition ratio (%) against α2c-adrenoceptor binding
Procedure: Adrenoceptor Binding Activity (α2c-Adrenoceptor Binding Test)
This test was carried out according to the method of Schaak et al. [Journal of Pharmacological Experimental Therapeutics, Vol. 281, p. 983 (1997)] as slightly modified.
Human hepatocyto HepG2 cells were cultured in DMEM medium (GIBCO BRL) containing 10% fetal bovine serum (FBS), 100 units/ml penicillin and 100 μg/ml streptomycin, and the membrane fraction of the cultured cells was used. The cultured cells were washed with phosphate-buffered saline (PBS), then scraped with a scraper and recovered by centrifugation at 800 rpm for 5 minutes. To the cells was added a buffer [50 mmol/l tris(hydroxymethyl)aminomethane: Tris, 5 mmol/l ethylenediamine tetraacetic acid (EDTA), pH 7.5], and the cells were suspended using Polytron Homogenizer (Kinematica), followed by centrifugation at 39,000×g for 10 minutes. The precipitate thus obtained was re-suspended in the same amount of the buffer, and the cell suspension was obtained by centrifugation and removing the supernatant in a similar manner.
To 100 μl of the cell suspension were added 80 μl of tritium-labeled MK-912 (methyl-^3H: 2.89 TBq/mmol; New England Nuclear) (final concentration: 1.0 nmol/l) and 20 μl of a test compound. The mixture was allowed to stand at 25° C. for 30 minutes and then rapidly filtered by suction through a glass fiber filter treated with 0.3% polyethyleneimine (GF/C; Whatman). The filter was immediately washed 3 times with 200 μl of an ice-cooled buffer and transferred to a vial. A liquid scintillator (ULTIMA GOLD; Packard) was added thereto and the radioactivity was measured with a liquid scintillation counter (Packard).
The inhibition ratio of the test compound against the α2C-adrenoceptor binding (^3H-MK-912 binding) was calculated using the following equation.
Inhibition ratio (%)={1−(amount of the binding in the presence of the test compound−amount of the nonspecific binding)/(amount of the total binding−amount of the nonspecific binding)}×100
(Note) Amount of the total binding means the amount of radioactivity of ^3H-MK-912 bound in the absence of the test compound. Amount of the nonspecific binding means the amount of radioactivity of ^3H-MK-912 bound in the presence of 10 μmol/l Yohimbine (Sigma). Amount of the binding in the presence of the test compound means the amount of radioactivity of ^3H-MK-912 bound in the presence of varied concentrations of the test compound.

SMILES	inhibition at 0.1 µM
Nc1ncc(CN2CCN(c3ccccc3)CC2)c2nc(-c3ccco3)nn12 [Compound 2, 5-Amino-2-(2-furyl)-8-(4-phenylpiperazin-1-ylmethyl)[1,2,4]triazolo[1,5-c]pyrimidine]	80%
Nc1ncc(CN2CCc3ccccc3C2)c2nc(-c3ccco3)nn12 [Compound 19, 5-Amino-2-(2-furyl)-8-(1,2,3,4-tetrahydroisoquinolin-2-ylmethyl)[1,2,4]triazolo[1,5-c]pyrimidine]	96%
Nc1ncc(CN2CCN(c3ncccn3)CC2)c2nc(-c3ccco3)nn12 [Compound 23, 5-Amino-2-(2-furyl)-8-[4-(2-pyrimidinyl)piperazin-1-ylmethyl][1,2,4]triazolo[1,5-c]pyrimidine]	70%
Nc1ncc(CN2CCN(c3ccccc3F)CC2)c2nc(-c3ccco3)nn12 [Compound 45, 5-Amino-8-[4-(2-fluorophenyl)piperazin-1-ylmethyl]-2-(2-furyl)[1,2,4]triazolo[1,5-c]pyrimidine]	88%
Nc1ncc(CN2CCN(c3ccccc3Cl)CC2)c2nc(-c3ccco3)nn12 [Compound 49, 5-Amino-8-[4-(2-chlorophenyl)piperazin-1-ylmethyl]-2-(2-furyl)[1,2,4]triazolo[1,5-c]pyrimidine]	91%
Cc1ccccc1N1CCN(Cc2cnc(N)n3nc(-c4ccco4)nc23)CC1 [Compound 55, 5-Amino-2-(2-furyl)-8-[4-(2-methylphenyl)piperazin-1-ylmethyl][1,2,4]triazolo[1,5-c]pyrimidine]	92%
N#Cc1ccccc1N1CCN(Cc2cnc(N)n3nc(-c4ccco4)nc23)CC1 [Compound 59, 5-Amino-8-[4-(2-cyanophenyl)piperazin-1-ylmethyl]-2-(2-furyl)[1,2,4]triazolo[1,5-c]pyrimidine]	65%
COc1ccc2c(c1)CCN(Cc1cnc(N)n3nc(-c4ccco4)nc13)C2 [Compound 89, 5-Amino-2-(2-furyl)-8-(6-methoxy-1,2,3,4-tetrahydroisoquinolin-2-ylmethyl)[1,2,4]triazolo[1,5-c]pyrimidine]	86%
COCCNc1ncc(CN2CCc3ccccc3C2)c2nc(-c3ccco3)nn12 [Compound 127, 2-(2-Furyl)-5-(2-methoxyethylamino)-8-(1,2,3,4-tetrahydroisoquinolin-2-ylmethyl)[1,2,4]triazolo[1,5-c]pyrimidine]	68%
Nc1ncc(CN2CCN(c3ccccc3)CC2)c2nc(-c3cccnc3)nn12 [Compound 144, 5-Amino-8-(4-phenylpiperazin-1-ylmethyl)-2-(3-pyridyl)[1,2,4]triazolo[1,5-c]pyrimidine]	75%
Nc1ncc(CN2CCN(c3ccccc3)CC2)c2nc(C3CCCCC3)nn12 [Compound 166, 5-Amino-2-cyclohexyl-8-(4-phenylpiperazin-1-ylmethyl)[1,2,4]triazolo[1,5-c]pyrimidine]	84%
COc1cc2c(cc1OC)CN(Cc1cnc(NCCCO)n3nc(-c4ccco4)nc13)CC2 [Compound 182, 8-(6,7-Dimethoxy-1,2,3,4-tetrahydroisoquinolin-2-ylmethyl)-2-(2-furyl)-5-(3-hydroxypropylamino)[1,2,4]triazolo[1,5-c]pyrimidine]	72%
Cc1ccc2c(c1)CN(Cc1cnc(N)n3nc(-c4ccco4)nc13)CC2 [Compound 195, 5-Amino-2-(2-furyl)-8-(7-methyl-1,2,3,4-tetrahydroisoquinolin-2-ylmethyl)[1,2,4]triazolo[1,5-c]pyrimidine]	87%
Nc1ncc(CN2CCC(c3ccccc3)CC2)c2nc(-c3ccco3)nn12 [Compound 203, 5-Amino-2-(2-furyl)-8-(4-phenylpiperidinomethyl)[1,2,4]triazolo[1,5-c]pyrimidine]	83%
Nc1ncc(CNCC2COc3ccccc3O2)c2nc(-c3ccco3)nn12 (stereo not shown) [Compound 213, 5-Amino-8-(1,4-benzodioxan-2-ylmethylaminomethyl)-2-(2-furyl)[1,2,4]triazolo[1,5-c]pyrimidine]	96%
CN(Cc1ccccc1)c1ncc(CN2CCN(c3ccccc3F)CC2)c2nc(-c3ccco3)nn12 [Compound 370, 8-[4-(2-Fluorophenyl)piperazin-1-ylmethyl]-2-(2-furyl)-5-(N-methylbenzylamino)[1,2,4]triazolo[1,5-c]pyrimidine]	91%
CSc1ncc(CN2CCc3ccccc3C2)c2nc(-c3ccco3)nn12 [Compound 452, 2-(2-Furyl)-5-methylthio-8-(1,2,3,4-tetrahydroisoquinolin-2-ylmethyl)[1,2,4]triazolo[1,5-c]pyrimidine]	58%
O=c1[nH]cc(CN2CCN(c3ccccc3)CC2)c2nc(-c3ccco3)nn12 [Compound 483, 2-(2-Furyl)-8-(4-phenylpiperazin-1-ylmethyl)-6H-[1,2,4]triazolo[1,5-c]pyrimidin-5-one]	60%
C1=C(CN2CCc3ccccc3C2)c2nc(-c3ccco3)nn2C2=NCCN12 [Compound 491, 2-(2-Furyl)-4-(1,2,3,4-tetrahydroisoquinolin-2-ylmethyl)-6,7-dihydro-1,3,5a,8,8b-pentaaza-as-indacene]	74%
